From PubChem BioAssay (NCI)
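Each compound was tested at five concentrations against cells in 96-well plates for 48 hours. GI50 = concentration required for 50% inhibition of growth. TGI: total growth inhibition.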

Columns and labels:
Test in all cases: NCI tumour cell line growth inhibition, 48 h
786-0 renal = test system: 786-0 renal
A498 renal = test system: A498 renal
A549 NSCLC = test system: A549 NSCLC
ACHN renal = test system: ACHN renal
BT-549 breast = test system: BT-549 breast
CAKI-1 renal = test system: CAKI-1 renal
CCRF-CEM leukemia = test system: CCRF-CEM leukemia
COLO 205 colon = test system: COLO 205 colon
DU-145 prostate = test system: DU-145 prostate
EKVX NSCLC = test system: EKVX NSCLC
HCC-2998 colon = test system: HCC-2998 colon
HCT-116 colon = test system: HCT-116 colon
HCT-15 colon = test system: HCT-15 colon
HL-60(TB) leukemia = test system: HL-60(TB) leukemia
HOP-62 NSCLC = test system: HOP-62 NSCLC
HOP-92 NSCLC = test system: HOP-92 NSCLC
HS 578T breast = test system: HS 578T breast
HT29 colon = test system: HT29 colon
IGROV1 ovarian = test system: IGROV1 ovarian
K-562 leukemia = test system: K-562 leukemia
KM12 colon = test system: KM12 colon
LOX IMVI melanoma = test system: LOX IMVI melanoma
M14 melanoma = test system: M14 melanoma
MALME-3M melanoma = test system: MALME-3M melanoma
MCF7 breast = test system: MCF7 breast
MDA-MB-231 breast = test system: MDA-MB-231 breast
MDA-MB-435 = test system: MDA-MB-435
MOLT-4 leukemia = test system: MOLT-4 leukemia
NCI-H226 lung = test system: NCI-H226 lung
NCI-H23 lung = test system: NCI-H23 lung
NCI-H460 lung = test system: NCI-H460 lung
NCI-H522 lung = test system: NCI-H522 lung
NCI/ADR-RES ovarian = test system: NCI/ADR-RES ovarian
OVCAR-3 ovarian = test system: OVCAR-3 ovarian
OVCAR-4 ovarian = test system: OVCAR-4 ovarian
OVCAR-5 ovarian = test system: OVCAR-5 ovarian
OVCAR-8 ovarian = test system: OVCAR-8 ovarian
PC-3 prostate = test system: PC-3 prostate
RPMI-8226 leukemia = test system: RPMI-8226 leukemia
RXF 393 renal = test system: RXF 393 renal
SF-268 CNS = test system: SF-268 CNS
SF-295 CNS = test system: SF-295 CNS
SF-539 CNS = test system: SF-539 CNS
SK-MEL-2 melanoma = test system: SK-MEL-2 melanoma
SK-MEL-28 melanoma = test system: SK-MEL-28 melanoma
SK-MEL-5 melanoma = test system: SK-MEL-5 melanoma
SK-OV-3 ovarian = test system: SK-OV-3 ovarian
SN12C renal = test system: SN12C renal
SNB-19 CNS = test system: SNB-19 CNS
SNB-75 CNS = test system: SNB-75 CNS
SR leukemia = test system: SR leukemia
SW-620 colon = test system: SW-620 colon
T-47D breast = test system: T-47D breast
TK-10 renal = test system: TK-10 renal
U251 CNS = test system: U251 CNS
UACC-257 melanoma = test system: UACC-257 melanoma
UACC-62 melanoma = test system: UACC-62 melanoma
UO-31 renal = test system: UO-31 renal

For Oc1ccc(Cl)cc1Cc1cc(Cl)ccc1O, the GI50 (786-0 renal) was 3.85 µM, the TGI (786-0 renal) was 14.3 µM and the GI50 (A498 renal) was 1.98 µM. For the same compound, the TGI (A498 renal) was 9.84 µM, the GI50 (A549 NSCLC) was 2.95 µM and the TGI (A549 NSCLC) was 11.1 µM. The GI50 (ACHN renal) was 3.33 µM, the TGI (ACHN renal) was 11.3 µM and the GI50 (BT-549 breast) was 2.6 µM. The TGI (BT-549 breast) was 8.76 µM, the GI50 (CAKI-1 renal) was 2.8 µM and the TGI (CAKI-1 renal) was 9.38 µM. For the same compound, the GI50 (CCRF-CEM leukemia) was 2.43 µM, the TGI (CCRF-CEM leukemia) was 9.79 µM and the GI50 (COLO 205 colon) was 13.7 µM. For the same compound, the TGI (COLO 205 colon) was 26.8 µM, the GI50 (DU-145 prostate) was 3.81 µM and the TGI (DU-145 prostate) was 13.8 µM. For the same compound, the GI50 (EKVX NSCLC) was 2.65 µM, the TGI (EKVX NSCLC) was 8.84 µM and the GI50 (HCC-2998 colon) was 2.36 µM. The TGI (HCC-2998 colon) was 5.78 µM, the GI50 (HCT-116 colon) was 2.6 µM and the TGI (HCT-116 colon) was 7.08 µM. For the same compound, the GI50 (HCT-15 colon) was 3.26 µM, the TGI (HCT-15 colon) was 12.3 µM and the GI50 (HL-60(TB) leukemia) was 2.42 µM. It also gave a TGI (HL-60(TB) leukemia) of 6.05 µM, a GI50 (HOP-62 NSCLC) of 2.39 µM and a TGI (HOP-62 NSCLC) of 7.56 µM. The GI50 (HOP-92 NSCLC) was 0.801 µM, the TGI (HOP-92 NSCLC) was 3.58 µM and the GI50 (HS 578T breast) was 1.91 µM. It also gave a TGI (HS 578T breast) of 7.35 µM, a GI50 (HT29 colon) of 3.55 µM and a TGI (HT29 colon) of 10.6 µM. The GI50 (IGROV1 ovarian) was 3.34 µM, the TGI (IGROV1 ovarian) was 12.5 µM and the GI50 (K-562 leukemia) was 3.3 µM. The TGI (K-562 leukemia) was 13.7 µM, the GI50 (KM12 colon) was 3.06 µM and the TGI (KM12 colon) was 11.1 µM. For the same compound, the GI50 (LOX IMVI melanoma) was 2.82 µM, the TGI (LOX IMVI melanoma) was 8.51 µM and the GI50 (M14 melanoma) was 3.31 µM. For the same compound, the TGI (M14 melanoma) was 10.5 µM, the GI50 (MALME-3M melanoma) was 2.55 µM and the TGI (MALME-3M melanoma) was 6.35 µM. It also gave a GI50 (MCF7 breast) of 2.97 µM, a TGI (MCF7 breast) of 10.2 µM and a GI50 (MDA-MB-231 breast) of 1.65 µM. It also gave a TGI (MDA-MB-231 breast) of 5.01 µM, a GI50 (MDA-MB-435) of 2.76 µM and a TGI (MDA-MB-435) of 8.44 µM. The GI50 (MOLT-4 leukemia) was 2.86 µM, the TGI (MOLT-4 leukemia) was 8.83 µM and the GI50 (NCI-H226 lung) was 3.28 µM. The TGI (NCI-H226 lung) was 14.4 µM, the GI50 (NCI-H23 lung) was 2.04 µM and the TGI (NCI-H23 lung) was 5.79 µM. The GI50 (NCI-H460 lung) was 3 µM, the TGI (NCI-H460 lung) was 10.7 µM and the GI50 (NCI-H522 lung) was 1.92 µM. For the same compound, the TGI (NCI-H522 lung) was 5.32 µM, the GI50 (NCI/ADR-RES ovarian) was 2.19 µM and the TGI (NCI/ADR-RES ovarian) was 6.32 µM. For the same compound, the GI50 (OVCAR-3 ovarian) was 2.63 µM, the TGI (OVCAR-3 ovarian) was 8.35 µM and the GI50 (OVCAR-4 ovarian) was 2.84 µM. The TGI (OVCAR-4 ovarian) was 11.9 µM, the GI50 (OVCAR-5 ovarian) was 4.79 µM and the TGI (OVCAR-5 ovarian) was 19.6 µM. It also gave a GI50 (OVCAR-8 ovarian) of 2.63 µM, a TGI (OVCAR-8 ovarian) of 8.97 µM and a GI50 (PC-3 prostate) of 3.17 µM. The TGI (PC-3 prostate) was 11.6 µM, the GI50 (RPMI-8226 leukemia) was 1.53 µM and the TGI (RPMI-8226 leukemia) was 5.1 µM. It also gave a GI50 (RXF 393 renal) of 2.38 µM, a TGI (RXF 393 renal) of 8.04 µM and a GI50 (SF-268 CNS) of 2.81 µM. It also gave a TGI (SF-268 CNS) of 11.3 µM, a GI50 (SF-295 CNS) of 2.27 µM and a TGI (SF-295 CNS) of 6.09 µM. For the same compound, the GI50 (SF-539 CNS) was 3.8 µM, the TGI (SF-539 CNS) was 13.8 µM and the GI50 (SK-MEL-2 melanoma) was 2.21 µM. It also gave a TGI (SK-MEL-2 melanoma) of 5.02 µM, a GI50 (SK-MEL-28 melanoma) of 3.52 µM and a TGI (SK-MEL-28 melanoma) of 12.6 µM. The GI50 (SK-MEL-5 melanoma) was 1.62 µM, the TGI (SK-MEL-5 melanoma) was 3.46 µM and the GI50 (SK-OV-3 ovarian) was 2.81 µM. It also gave a TGI (SK-OV-3 ovarian) of 10.9 µM, a GI50 (SN12C renal) of 2.8 µM and a TGI (SN12C renal) of 10.7 µM. For the same compound, the GI50 (SNB-19 CNS) was 3.52 µM, the TGI (SNB-19 CNS) was 15 µM and the GI50 (SNB-75 CNS) was 4.09 µM. For the same compound, the TGI (SNB-75 CNS) was 24.2 µM, the GI50 (SR leukemia) was 4.45 µM and the TGI (SR leukemia) was 35.8 µM. The GI50 (SW-620 colon) was 3.04 µM, the TGI (SW-620 colon) was 12.4 µM and the GI50 (T-47D breast) was 2.18 µM. For the same compound, the TGI (T-47D breast) was 7.3 µM, the GI50 (TK-10 renal) was 3.65 µM and the TGI (TK-10 renal) was 11.3 µM. For the same compound, the GI50 (U251 CNS) was 2.32 µM, the TGI (U251 CNS) was 11.6 µM and the GI50 (UACC-257 melanoma) was 1.87 µM. It also gave a TGI (UACC-257 melanoma) of 5.39 µM, a GI50 (UACC-62 melanoma) of 2.77 µM and a TGI (UACC-62 melanoma) of 10.5 µM. The GI50 (UO-31 renal) was 2.06 µM and the TGI (UO-31 renal) was 6.48 µM.
